Test results published in patent US20150329501A1, “SUBSTITUTED [1,2,4]TRIAZOLE COMPOUNDS AND THEIR USE AS FUNGICIDES” (BASF SE, priority 2012, published 2015).

How the values were obtained:
[1] = test system: Pyricularia oryzae; type: cell-based; settings: relative growth vs active compound-free control (100%), microtiter plate, 405 nm, 7 days after inoculation
[2] = test system: Phakopsora pachyrhizi; assay: Green house: curative control of soy bean rust on soy beans caused by Phakopsora pachyrhizi (Phakpa K2) (G2-3); type: in vivo; settings: 125 ppm, sprayed after inoculation (curative), untreated plants 90% infected
[3] = test system: Septoria tritici; assay: Microtest: activity against leaf blotch on wheat caused by Septoria tritici (Septtr) (M1, M6, M2-3, CM4); type: cell-based; settings: 405 nm, 7 days after inoculation; for relative growth in % of the pathogen: 31 ppm, compound-free control = 100%; for Growth (%) at 0.5 ppm Septtr: relative growth vs active compound-free control (100%), microtiter plate
[4] = test system: Botrytis cinerea; assay: Green house: preventative fungicidal control of Botrytis cinerea on leaves of green pepper (Botrci P1) (G2-1); type: in vivo; settings: 125 ppm, sprayed the day before inoculation, untreated plants 90% infected
Description: Young seedlings of green pepper were grown in pots to the 4 to 5 leaf stage. […] The next day the plants were inoculated with an aqueous biomalt solution containing the spore suspension of Botrytis cinerea.

[5] = test system: Alternaria solani; assay: Green house: preventative fungicidal control of early blight on tomatoes (Alternaria solani) (Alteso P1) (G2, G2-2); settings: 125 ppm, sprayed the day before inoculation; tomato; untreated plants 70% infected
Description: Water was then added to total volume of 100 ml. This stock solution was diluted with the described solvent-emulsifier-water mixture to the given concentration.
Young seedlings of tomato plants were grown in pots. These plants were sprayed to run-off with an aqueous suspension, containing the concentration of active ingredient or mixture mentioned in the table below. The next day, the treated plants were inoculated with an aqueous suspension of Alternaria solani. Then the trial plants were immediately transferred to a humid chamber. After 5 days at 18 to 20° C. and a relative humidity close to 100%, the extent of fungal attack on the leaves was visually assessed as % diseased leaf area.

[6] = test system: Phytophthora infestans; type: cell-based; settings: relative growth vs active compound-free control (100%), microtiter plate, 405 nm, 7 days after inoculation
[7] = test system: Botrytis cinerea; assay: Microtest: activity against the grey mold Botrytis cinerea in the microtiterplate test (Botrci) (M2, M4, M2-1, CM3); type: cell-based; settings: relative growth vs active compound-free control (100%), microtiter plate, 405 nm, 7 days after inoculation

Structure (SMILES): CC(C)(C)C(O)(Cn1cncn1)c1cc(Cl)cc(Oc2ccc(Cl)cc2)c1 (stereo not shown) [Compound I-31]
- Growth (%) at 8 ppm Pyrior [1]: 0%

Structure (SMILES): OC(Cn1cncn1)(c1cccc(-c2ccc(Cl)cc2)c1)C(F)(F)F (stereo not shown) [Compound I-29]
- infection (% diseased leaf area) [2]: 0%
- relative growth in % of the pathogen [3]: 0%
- infection (% diseased leaf area) [4]: 1%
- infection (% diseased leaf area) [5]: 10%

Structure (SMILES): CC(C)(C)C(O)(Cn1cncn1)c1cc(Cl)cc(-c2ccc(Cl)cc2)c1 (stereo not shown) [Compound I-27]
- infection (% diseased leaf area) [2]: 7%

Structure (SMILES): CC(C)(C)C(O)(Cn1cncn1)c1cccc(Oc2ccc(Cl)cc2)c1 (stereo not shown) [Compound I-24]
- Growth (%) at 8 ppm Pyrior [1]: 0%
- Growth (%) at 31 ppm Phytin [6]: 42%
- Growth (%) at 0.5 ppm Septtr [3]: 13%
- Growth (%) at 31 ppm Botrci [7]: 9%

Structure (SMILES): C#CCC(O)(Cn1cncn1)c1cccc(-c2ccc(Cl)cc2)c1 (stereo not shown) [Compound I-30]
- infection (% diseased leaf area) [2]: 1%
- relative growth in % of the pathogen [3]: 0%
- infection (% diseased leaf area) [4]: 1%
- infection (% diseased leaf area) [5]: 1%

Structure (SMILES): CC(C)(C)C(O)(Cn1cncn1)c1cccc(Oc2ccccc2)c1 (stereo not shown)
- Growth (%) at 8 ppm Pyrior [1]: 89%
- Growth (%) at 31 ppm Phytin [6]: 80%
- Growth (%) at 0.5 ppm Septtr [3]: 83%
- Growth (%) at 31 ppm Botrci [7]: 76%

Structure (SMILES): CC(C)(C)C(O)(Cn1cncn1)c1cc(Cl)cc(Oc2ccccc2)c1 (stereo not shown)
- Growth (%) at 8 ppm Pyrior [1]: 69%
